Our source for the IC50 values is patent US7678818B2, “Anthranilamide and 2-amino-heteroarene-carboxamide compounds” (Hoffmann-La Roche Inc., priority 2006, dated 2010).

Molecules are shown by their SMILES.

A word on the IC50: it is the concentration that gives 50% inhibition.

This assay addresses T1, cholesteryl ester transfer protein (CETP) from human lipoprotein-deprived serum (LPDS) (Homo sapiens, UniProt P11597).
T1 construct: the source of CETP was human lipoprotein-deprived serum (LPDS); from tissue; host or cells: human lipoprotein-deprived serum (LPDS)
T1 sequence (P11597 18-493): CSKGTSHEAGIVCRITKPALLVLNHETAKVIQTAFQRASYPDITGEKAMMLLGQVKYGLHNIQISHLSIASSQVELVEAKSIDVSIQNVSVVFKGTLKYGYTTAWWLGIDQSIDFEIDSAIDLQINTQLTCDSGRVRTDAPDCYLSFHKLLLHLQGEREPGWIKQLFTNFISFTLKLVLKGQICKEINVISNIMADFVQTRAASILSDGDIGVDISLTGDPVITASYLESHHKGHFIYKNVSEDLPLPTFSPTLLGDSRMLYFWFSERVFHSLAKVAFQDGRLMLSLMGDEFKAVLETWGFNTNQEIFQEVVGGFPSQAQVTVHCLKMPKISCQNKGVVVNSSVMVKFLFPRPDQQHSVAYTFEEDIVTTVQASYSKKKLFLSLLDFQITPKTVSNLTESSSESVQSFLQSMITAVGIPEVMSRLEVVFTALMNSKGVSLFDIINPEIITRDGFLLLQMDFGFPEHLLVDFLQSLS
Nature of the assay: CETP inhibition in the presence of plasma (SPA assay, CETP source human lipoprotein-deprived serum). Format: biochemical. The protocol:
Activity of CETP inhibitors was determined using a buffer assay system. Partially purified CETP transferred radiolabeled cholesteryl ester from HDL donor particles to biotin-labeled LDL acceptor particles. The reaction was stopped by addition of streptavidin-coupled scintillation proximity assay (SPA) beads. These beads captured the biotinylated acceptor particles and transferred radioactivity was measured. The assay system was purchased and performed according to manufacturer's recommendations (Amersham Biosciences). Inhibitory activity of compounds was determined as percentage of positive control activity containing CETP together with donor and acceptor particles. Serial dilution of compounds was performed in order to determine the IC50 values.
Activity of the compounds was subsequently measured in the presence of plasma using the same assay as described above except that the source of CETP was human lipoprotein-deprived serum (LPDS). Inhibitory activity of compounds was determined as percentage of positive control activity containing all the assay components except compound. Serial dilution of compounds was performed in order to determine the IC50 values.
As to `CCC(=O)Nc1ccc(Cl)c(Cl)c1C(=O)N(CCc1cccc(C(F)(F)F)c1)Cc1ccc(C(C)(C)C)cc1` [Compound 13.230, N-(4-tert-Butyl-benzyl)-2,3-dichloro-6-propionylamino-N-[2-(3-trifluoromethyl-phenyl)-ethyl]-benzamide], the concentration for half-maximal inhibition (IC50) is 5.61 µM.

In the case of `CNc1c(Cl)ccc(F)c1C(=O)N(CCc1cccc(C(F)(F)F)c1)Cc1ccc(C(C)(C)C)cc1` [Compound 13.254, N-(4-tert-Butyl-benzyl)-3-chloro-6-fluoro-2-methylamino-N-[2-(3-trifluoromethyl-phenyl)-ethyl]-benzamide], the half-inhibitory concentration (IC50) is 0.295 µM.

Take `CC(C)(C)c1ccc(CN(CCc2cccc(C(F)(F)F)c2)C(=O)c2cccnc2N)cc1` [Compound 13.63, 2-Amino-N-(4-tert-butyl-benzyl)-N-[2-(3-trifluoromethyl-phenyl)-ethyl]-nicotinamide]: the IC50 turned out to be 30 µM.
